Common to all, as to type: biochemical
The target in one experiment is T1, JAK3 enzyme (Homo sapiens, UniProt P52333).
T1 sequence (P52333 1-1124): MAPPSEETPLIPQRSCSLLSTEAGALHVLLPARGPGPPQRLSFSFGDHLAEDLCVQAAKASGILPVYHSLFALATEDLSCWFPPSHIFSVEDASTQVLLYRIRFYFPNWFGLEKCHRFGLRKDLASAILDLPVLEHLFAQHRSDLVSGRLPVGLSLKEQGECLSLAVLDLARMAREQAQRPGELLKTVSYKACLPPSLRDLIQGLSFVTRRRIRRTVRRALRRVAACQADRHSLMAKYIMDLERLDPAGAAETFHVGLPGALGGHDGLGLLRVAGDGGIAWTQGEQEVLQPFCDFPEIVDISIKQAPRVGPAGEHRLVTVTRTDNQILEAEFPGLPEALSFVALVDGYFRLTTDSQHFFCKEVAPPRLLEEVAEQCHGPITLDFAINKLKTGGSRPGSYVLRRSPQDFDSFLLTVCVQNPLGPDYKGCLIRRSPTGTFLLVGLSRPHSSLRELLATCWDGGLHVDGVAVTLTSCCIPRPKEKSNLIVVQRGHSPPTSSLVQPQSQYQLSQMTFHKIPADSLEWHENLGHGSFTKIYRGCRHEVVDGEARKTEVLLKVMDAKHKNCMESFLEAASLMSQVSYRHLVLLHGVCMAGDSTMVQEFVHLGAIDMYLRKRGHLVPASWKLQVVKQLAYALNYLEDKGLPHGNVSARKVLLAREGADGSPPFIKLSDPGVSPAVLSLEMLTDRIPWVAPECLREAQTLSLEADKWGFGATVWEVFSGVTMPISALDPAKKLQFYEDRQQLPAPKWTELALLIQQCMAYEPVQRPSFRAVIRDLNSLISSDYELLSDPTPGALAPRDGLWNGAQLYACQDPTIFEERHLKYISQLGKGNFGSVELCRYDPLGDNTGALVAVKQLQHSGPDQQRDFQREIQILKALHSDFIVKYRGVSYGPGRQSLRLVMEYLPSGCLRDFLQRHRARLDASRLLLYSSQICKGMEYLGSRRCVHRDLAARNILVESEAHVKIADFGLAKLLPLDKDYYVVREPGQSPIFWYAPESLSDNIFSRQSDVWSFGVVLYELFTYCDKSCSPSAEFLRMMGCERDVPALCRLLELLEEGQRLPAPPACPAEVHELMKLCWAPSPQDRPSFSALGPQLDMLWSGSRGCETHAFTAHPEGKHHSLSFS
Nature of the experiment: JAK3 Kinase Assay Protocol (Filter). Particulars: 33P γ-ATP, 8 μM ATP, CSKtide substrate, read-out: LLE_JAK3_FB (IC50). On the procedure: Kinase reactions consisted of 5 ng of JAK3 enzyme, 30 uM CSKtide substrate, 0.2 μCi ^33P γ-ATP, 8 μM ATP in 30 μl kinase buffer (50 mM Hepes, pH 8.0, 10 mM MgCl2, 1 mM EGTA, 2 mM DTT). Reactions were incubated for 30 minutes at room temperature and stopped by the addition of cold trichloroacetic acid (TCA) to a final concentration of 15%. TCA precipitates were collected onto 384 well phosphocellulose filters (Millipore) using a Platemate to transfer the reaction mixture, washed on an EMBLA plate washer and the filters were quantitated using a TopCount 384-well liquid scintillation counter. […] Compounds were dissolved at 10 mM in dimethylsulfoxide (DMSO) and evaluated at six concentrations, each in triplicate. The final concentration of DMSO in the assay equaled 2%. IC50 values were derived by non-linear regression analysis.

The target of the next experiment is T2, GST-JAK3 enzyme (Homo sapiens, UniProt P52333).
T2 sequence (P52333 1-1124): T1 sequence (P52333 1-1124)
As to the kind of experiment: JAK3 Kinase Assay Protocol (Caliper). The following applies: Caliper LabChip assay, ATP 8 μM, fluoresceinated peptide; read-out: LLE_JAK3_CAL (IC50). On the procedure: The assay reactions were performed in U-bottom 384-well plates. […] The reaction was initiated by the combination of GST-JAK3 enzyme with substrates and test compounds. The reactions were incubated at room temperature for 3 hours and terminated by adding 60 μl of 35 mM EDTA to each sample. Each reaction mixture was analyzed on the Caliper LabChip 3000 (Caliper, Hopkinton, Mass.) by electrophoretic separation of the fluorescent substrate and phosphorylated product. […] Compounds were dissolved at 10 mM in dimethylsulfoxide (DMSO) and evaluated at eleven concentrations. IC50 values were derived by non-linear regression analysis.

A further experiment has as its target GST-JAK1 enzyme (Homo sapiens, UniProt P23458). As to the kind of experiment: JAK1 Kinase Assay Protocol. The following applies: Caliper LabChip assay, ATP 100 μM, fluoresceinated peptide; read-out: LLE_JAK1 (IC50). The method, then: The assay reactions were performed in U-bottom 384-well plates. The final assay volume was 30 μl prepared from 15 μl additions of enzyme and substrates (fluoresceinated peptide and ATP) and test compounds in assay buffer (20 mM HEPES pH 7.4, 10 mM MgCl2, 25 mM beta-glycerol phosphate, 0.015% Brij35 and 4 mM DTT). The reaction was initiated by the combination of GST-JAK1 enzyme with substrates and test compounds. The reactions were incubated at room temperature for 3 hours and terminated by adding 60 μl of 35 mM EDTA to each sample. Each reaction mixture was analyzed on the Caliper LabChip 3000 (Caliper, Hopkinton, Mass.) by electrophoretic separation of the fluorescent substrate and phosphorylated product. […] The final concentration of reagents in the assays was: ATP, 100 μM; fluoresceinated peptide, 1.5 μM; GST-JAK1, 12.5 nM; and DMSO, 1.6%. […] Compounds were dissolved at 10 mM in dimethylsulfoxide (DMSO) and evaluated at eleven concentrations. IC50 values were derived by non-linear regression analysis.

Sequence of GST-JAK1 enzyme (P23458 whole entry): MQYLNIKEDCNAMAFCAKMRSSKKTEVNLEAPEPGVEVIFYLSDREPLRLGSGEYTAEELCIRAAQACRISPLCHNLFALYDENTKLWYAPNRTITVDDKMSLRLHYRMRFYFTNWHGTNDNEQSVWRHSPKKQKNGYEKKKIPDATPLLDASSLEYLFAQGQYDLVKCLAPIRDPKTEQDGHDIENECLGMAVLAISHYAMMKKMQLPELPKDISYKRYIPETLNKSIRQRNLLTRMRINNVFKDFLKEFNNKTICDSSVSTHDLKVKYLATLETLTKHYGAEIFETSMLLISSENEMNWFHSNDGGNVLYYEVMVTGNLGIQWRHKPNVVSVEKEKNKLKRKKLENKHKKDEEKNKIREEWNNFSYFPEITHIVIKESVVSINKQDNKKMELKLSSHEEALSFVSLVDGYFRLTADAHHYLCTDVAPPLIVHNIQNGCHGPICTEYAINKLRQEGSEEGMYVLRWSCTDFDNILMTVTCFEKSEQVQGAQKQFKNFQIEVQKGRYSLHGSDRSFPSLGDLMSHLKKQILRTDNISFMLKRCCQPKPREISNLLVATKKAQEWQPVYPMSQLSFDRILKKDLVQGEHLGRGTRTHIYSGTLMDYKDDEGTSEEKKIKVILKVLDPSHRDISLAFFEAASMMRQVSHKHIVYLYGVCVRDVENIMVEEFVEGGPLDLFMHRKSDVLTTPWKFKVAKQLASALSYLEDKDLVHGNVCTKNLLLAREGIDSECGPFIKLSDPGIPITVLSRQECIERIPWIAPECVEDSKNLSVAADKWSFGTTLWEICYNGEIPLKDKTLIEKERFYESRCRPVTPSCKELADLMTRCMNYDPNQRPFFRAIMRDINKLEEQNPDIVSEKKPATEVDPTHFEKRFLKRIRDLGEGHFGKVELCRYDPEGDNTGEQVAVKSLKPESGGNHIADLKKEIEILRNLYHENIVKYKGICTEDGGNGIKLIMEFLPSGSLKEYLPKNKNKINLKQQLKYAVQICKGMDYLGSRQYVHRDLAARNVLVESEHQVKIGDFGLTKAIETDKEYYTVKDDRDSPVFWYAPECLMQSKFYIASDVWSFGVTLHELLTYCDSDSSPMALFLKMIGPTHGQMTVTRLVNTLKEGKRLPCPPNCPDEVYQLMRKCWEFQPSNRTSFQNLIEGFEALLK

Broadly, the IC50 is the midpoint of a concentration-inhibition curve. In the case of `CC1CCN(c2cc3c(N[C@H](C)C(C)(C)F)c(C(N)=O)cnn3c2)C1=O` (mixture of isomers) [Example 134], the 50% inhibitory concentration (IC50) on JAK3 enzyme turned out to be 8.7 nM; on GST-JAK3 enzyme, 8 nM; at GST-JAK1 enzyme it was 40.1 nM.

Consider `CC(Nc1c(C(N)=O)cnn2cc(-c3ccncc3)cc12)c1cc(F)ccc1F` (racemic) [Example 181, (+/−)-4-((1-(2,5-difluorophenyl)ethyl)amino)-6-(4-pyridinyl)pyrrolo[1,2-b]pyridazine-3-carboxamide], for which the IC50 at JAK3 enzyme is 49.2 nM; on GST-JAK3 enzyme it was 96.4 nM; at GST-JAK1 enzyme, 106 nM.

For the molecule `C[C@@H](Nc1c(C(N)=O)cnn2cc(-c3cccc(C(O)CO)c3)cc12)C1CC1` (mixture of isomers) [Example 187, (R)-4-(1-cyclopropylethylamino)-6-(3-(1,2-dihydroxyethyl)phenyl)pyrrolo[1,2-b]-pyridazine-3-carboxamide], the IC50 was determined as 1 nM at JAK3 enzyme, 1.3 nM on GST-JAK3 enzyme and 3 nM on GST-JAK1 enzyme.

Regarding `CC(Nc1c(C(N)=O)cnn2cc(-c3ccccc3)cc12)C(C)(C)C(N)=O` (racemic) [Example 193, (+/−)-4-(4-amino-3,3-dimethyl-4-oxobutan-2-ylamino)-6-phenylpyrrolo[1,2-b]-pyridazine-3-carboxamide], the IC50 at JAK3 enzyme came out at 1.8 nM; on GST-JAK1 enzyme, 2.7 nM.

On to `COc1ccc(-c2cc3c(N[C@H](C)C(O)C4CC4)c(C(N)=O)cnn3c2)cn1` (single isomer, unassigned; isomer a) [Example 210], for which the IC50 amounted to 0.5 nM at JAK3 enzyme, 0.8 nM on GST-JAK3 enzyme and 3.6 nM at GST-JAK1 enzyme.

As to `C[C@@H](Nc1c(C(N)=O)cnn2cc(N3CCCC3=O)cc12)C(C)(C)C` [Example 2], the values for the IC50 on JAK3 enzyme, at GST-JAK3 enzyme and at GST-JAK1 enzyme were 0.9 nM, 3.7 nM and 43 nM, respectively.

`C[C@@H](Nc1c(C(N)=O)cnn2cc(-n3ccccc3=O)cc12)C(C)(C)C` [Example 5]: the IC50 was 48.4 nM at JAK3 enzyme, 24 nM at GST-JAK3 enzyme and 193 nM on GST-JAK1 enzyme.

As to `CCOC(=O)Nc1cc2c(N[C@H](C)C(C)(C)C)c(C(N)=O)cnn2c1` [Example 9], the IC50 at JAK3 enzyme turned out to be 0.2 nM; on GST-JAK3 enzyme, 0.7 nM; at GST-JAK1 enzyme, 7 nM.

Turning to `C[C@@H](Nc1c(C(N)=O)cnn2cc(N3CCCCS3(=O)=O)cc12)C(C)(C)C` [Example 17], the IC50 turned out to be 21.6 nM at JAK3 enzyme, 22.4 nM on GST-JAK3 enzyme and 141 nM at GST-JAK1 enzyme.

Consider `CC(C)[C@H]1COC(=O)N1c1cc2c(N[C@H](C)C(C)(C)C)c(C(N)=O)cnn2c1` [Example 18], for which the IC50 came out at 109 nM at JAK3 enzyme, 105 nM on GST-JAK3 enzyme and 570 nM on GST-JAK1 enzyme.

`C[C@@H](Nc1c(C(N)=O)cnn2cc(N3CCOC3=O)cc12)C(C)(C)C` [Example 22]: the values for the IC50 on JAK3 enzyme, on GST-JAK3 enzyme and on GST-JAK1 enzyme were 0.7 nM, 2.8 nM and 34 nM, respectively.

Take `C[C@@H](Nc1c(C(N)=O)cnn2cc(N3CCN(C)C3=O)cc12)C(C)(C)C` [Example 25]: the IC50 was found to be 5.9 nM on JAK3 enzyme, 4.7 nM at GST-JAK3 enzyme and 86 nM at GST-JAK1 enzyme.

Turning to `C[C@@H](Nc1c(C(N)=O)cnn2cc(N3CCNC3=O)cc12)C(C)(C)C` [Example 29], the IC50 on JAK3 enzyme came to 1.2 nM; at GST-JAK3 enzyme, 5.3 nM; on GST-JAK1 enzyme it was 46.1 nM.

As for `C[C@@H](Nc1c(C(N)=O)cnn2cc(-c3ccc(F)cc3)cc12)C(C)(C)F` [Example 37], the IC50 came to 18.8 nM on JAK3 enzyme, 0.6 nM at GST-JAK3 enzyme and 3.8 nM on GST-JAK1 enzyme.

For `C[C@@H](Nc1c(C(N)=O)cnn2cc(-c3ccn[nH]3)cc12)C(C)(C)F` [Example 43], the results for the IC50 at JAK3 enzyme, on GST-JAK3 enzyme and on GST-JAK1 enzyme were 1.2 nM, 2.5 nM and 8.8 nM, respectively.

Consider `C[C@@H](Nc1c(C(N)=O)cnn2cc(-c3cccc(C#N)c3)cc12)C(C)(C)F` [Example 53, (R)-6-(3-cyanophenyl)-4-(3-fluoro-3-methylbutan-2-ylamino)pyrrolo[1,2-b]pyridazine-3-carboxamide], for which the figures for the IC50 at JAK3 enzyme, on GST-JAK3 enzyme and on GST-JAK1 enzyme were 0.9 nM, 1.4 nM and 5.2 nM, respectively.

On to `C[C@@H](N)c1cccc(-c2cc3c(N[C@H](C)C(C)(C)F)c(C(N)=O)cnn3c2)c1` [Example 62], for which the figures for the IC50 at JAK3 enzyme, at GST-JAK3 enzyme and at GST-JAK1 enzyme were 0.7 nM, 1.8 nM and 4 nM, respectively.

On to `C[C@@H](Nc1c(C(N)=O)cnn2cc(-c3cccc(CN)c3)cc12)C(C)(C)F` [Example 68, 6-(3-(aminomethyl)phenyl)-4-(((1R)-2-fluoro-1,2-dimethylpropyl)amino) pyrrolo[1,2-b]pyridazine-3-carboxamide], for which the IC50 at JAK3 enzyme is 0.7 nM; at GST-JAK3 enzyme it was 1 nM.

As to `NC(=O)c1cnn2cc(-c3ccccc3)cc2c1N[C@H](C(N)=O)c1ccccc1` [Example 125], the values for the IC50 on JAK3 enzyme, at GST-JAK3 enzyme and on GST-JAK1 enzyme were 18.6 nM, 66.7 nM and 260 nM, respectively.

Take `CC(C)Nc1c(C(N)=O)cnn2cc(-c3ccc4c(c3)OCO4)cc12` [Example 149]: the IC50 on GST-JAK3 enzyme is 23.8 nM.

In the case of `COc1ccc(-c2cc3c(N[C@H](C)C(C)(C)c4nc(C(N)=O)co4)c(C(N)=O)cnn3c2)cc1` [Example 219], the IC50 on GST-JAK3 enzyme worked out at 1.2 nM; on GST-JAK1 enzyme it was 0.6 nM.

With `C[C@@H](Nc1c(C(N)=O)cnn2cc(-c3ccc(C#N)cc3)cc12)C(C)(C)c1nc(C(N)=O)co1` [Example 222], the IC50 was found to be 0.9 nM at GST-JAK3 enzyme and 0.4 nM on GST-JAK1 enzyme.

On to `CC[C@@H](c1nc(C(N)=O)co1)[C@@H](C)Nc1c(C(N)=O)cnn2cc(-c3ccc(OC)nc3)cc12` [Example 224, 2-((2R,3R)-2-((3-carbamoyl-6-(6-methoxypyridin-3-yl)pyrrolo[1,2-b]pyridazin-4-yl)amino)pentan-3-yl)oxazole-4-carboxamide], for which the figures for the IC50 at GST-JAK3 enzyme and on GST-JAK1 enzyme were 0.3 nM and 0.5 nM, respectively.

Turning to `C[C@@H](O)[C@@H](COP(=O)(O)O)Nc1c(C(N)=O)cnn2cc(-c3ccccc3)cc12` [Example 240, (2R,3R)-2-((3-carbamoyl-6-phenylpyrrolo[1,2-b]pyridazin-4-yl)amino)-3-hydroxybutyl dihydrogen phosphate, disodium], the IC50 was 880 nM at GST-JAK3 enzyme and 2200 nM on GST-JAK1 enzyme.

Source of the values: patent publication US9221826B2, “Pyrrolopyridazine JAK3 inhibitors and their use for the treatment of inflammatory and autoimmune diseases” (Bristol-Myers Squibb Company, priority 2011, dated 2015).
